Source: patent US7338958B2, “Sulfoximine-substituted pyrimidines as CDK-and/or VEGF inhibitors, their production and use as pharmaceutical agents” (Schering AG, priority 2003, dated 2008)

Key:
[1] = system: MCF7, hormone-independent human breast cancer cells; experiment: Proliferation assay, MCF7; type: cell-based; conditions: MCF7, 96 h, 4 days incubation, crystal violet
Excerpt: Cultivated human tumor cells (MCF7, hormone-independent human breast cancer cells, related to ATCC HTB22; NCI-H460, human non-small-cell lung cancer cells, ATCC HTB-177, HCT 116, human colon cancer cells, ATCC CCL-247; DU 145, hormone-independent human prostate cancer cells, ATCC HTB-81; MaTu-MDR, hormone-independent, multiple pharmaceutical agent-resistant human breast cancer cells, EPO-GmbH, Berlin) were flattened out at a density of about 5000 cells/measuring point, depending on the growth rate of the respective cells, in a 96-well multititer plate in 200 μl of the corresponding growth medium. After 24 hours, the cells of one plate (zero-point plate) were colored with crystal violet (see below), while the medium of the other plates was replaced by fresh culture medium (200 μl), to which the test substances were added in various concentrations (0 μm, as well as in the range of 0.01-30 μm; the final concentration of the solvent dimethyl sulfoxide was 0.5%). The cells were incubated for 4 days in the presence of test substances. The cell proliferation was determined by coloring the cells with crystal violet: the cells were fixed by adding 20 μl/measuring point of an 11% glutaric aldehyde solution for 15 minutes at room temperature. After three washing cycles of the fixed cells with water, the plates were dried at room temperature. The cells were colored by adding 100 μl/measuring point of a 0.1% crystal violet solution (the pH was set at 3 by adding acetic acid). After three washing cycles of the colored cells with water, the plates were dried at room temperature. The dye was dissolved by adding 100 μl/measuring point of a 10% acetic acid solution. The extinction was determined by photometry at a wavelength of 595 nm. The change of cell growth, in percent, was calculated by normalization of the measured values to the extinction values of the zero-point plate (=0%) and the extinction of the untreated (0 μm) cells (=100%).

CDK1/CycB = biological target: T1, CDK1/CycB (Homo sapiens, UniProt P06493); experiment: CDK1/CycB Kinase Assay; type: biochemical; conditions: histone IIIS substrate, 33P-ATP, 15 minutes at 22° C.
T1 construct: GST; purchased ProQinase GmbH, Freiburg; host or cells: baculovirus-infected insect cells (Sf9)
T1 sequence (P06493 whole entry): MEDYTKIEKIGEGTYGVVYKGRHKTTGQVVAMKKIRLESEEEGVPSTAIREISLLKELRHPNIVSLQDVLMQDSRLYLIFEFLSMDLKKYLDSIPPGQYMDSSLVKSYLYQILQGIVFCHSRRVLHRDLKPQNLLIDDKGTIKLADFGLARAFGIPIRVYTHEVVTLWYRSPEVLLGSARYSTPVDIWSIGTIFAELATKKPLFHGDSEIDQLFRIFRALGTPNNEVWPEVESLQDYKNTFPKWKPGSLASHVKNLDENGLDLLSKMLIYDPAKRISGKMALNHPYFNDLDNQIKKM
T1 sequence (P14635 whole entry partner): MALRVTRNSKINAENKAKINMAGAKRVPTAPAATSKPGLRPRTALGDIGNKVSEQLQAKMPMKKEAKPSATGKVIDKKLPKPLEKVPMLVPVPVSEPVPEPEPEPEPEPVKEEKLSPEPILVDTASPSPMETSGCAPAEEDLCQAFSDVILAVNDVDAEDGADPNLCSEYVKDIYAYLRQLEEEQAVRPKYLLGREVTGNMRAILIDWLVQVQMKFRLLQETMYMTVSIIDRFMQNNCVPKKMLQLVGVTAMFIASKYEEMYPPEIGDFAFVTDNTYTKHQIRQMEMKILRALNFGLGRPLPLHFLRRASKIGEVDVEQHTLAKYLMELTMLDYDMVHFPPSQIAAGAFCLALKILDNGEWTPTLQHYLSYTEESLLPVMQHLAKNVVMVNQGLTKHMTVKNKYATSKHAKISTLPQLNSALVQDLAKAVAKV
Description: Recombinant CDK1- and CycB-GST-fusion proteins, purified from baculovirus-infected insect cells (Sf9), were purchased from ProQinase GmbH, Freiburg. Histone IIIS, used as a kinase substrate, is available commercially from the Sigma Company.
The reaction was stopped by adding EDTA solution (250 mmol, pH 8.0, 14 μl/measuring point).
(§1) From each reaction batch, 10 μl was applied to P30 filter strips (Wallac Company), and non-incorporated 33P-ATP was removed by subjecting the filter strips to three washing cycles for 10 minutes each in 0.5% phosphoric acid. After the filter strips were dried for one hour at 70° C., the filter strips were covered with scintillator strips (MeltiLex™ A, Wallac Company) and baked for one hour at 90° C. The amount of incorporated 33P (substrate phosphorylation) was determined by scintillation measurement in a gamma-radiation measuring device (Wallac).

[2] = biological target: T2, VEGF receptor tyrosine kinase-2 (Homo sapiens, UniProt P35968); experiment: VEGF Receptor-2 Kinase Assay; type: biochemical; conditions: poly-(Glu4Tyr) substrate, 33P-ATP, 10 minutes at 22° C.; read-out: VEGF-R2 IC50
T2 construct: GST; made in house; host or cells: baculovirus-infected insect cells (Sf9)
T2 sequence (P35968 20-1356): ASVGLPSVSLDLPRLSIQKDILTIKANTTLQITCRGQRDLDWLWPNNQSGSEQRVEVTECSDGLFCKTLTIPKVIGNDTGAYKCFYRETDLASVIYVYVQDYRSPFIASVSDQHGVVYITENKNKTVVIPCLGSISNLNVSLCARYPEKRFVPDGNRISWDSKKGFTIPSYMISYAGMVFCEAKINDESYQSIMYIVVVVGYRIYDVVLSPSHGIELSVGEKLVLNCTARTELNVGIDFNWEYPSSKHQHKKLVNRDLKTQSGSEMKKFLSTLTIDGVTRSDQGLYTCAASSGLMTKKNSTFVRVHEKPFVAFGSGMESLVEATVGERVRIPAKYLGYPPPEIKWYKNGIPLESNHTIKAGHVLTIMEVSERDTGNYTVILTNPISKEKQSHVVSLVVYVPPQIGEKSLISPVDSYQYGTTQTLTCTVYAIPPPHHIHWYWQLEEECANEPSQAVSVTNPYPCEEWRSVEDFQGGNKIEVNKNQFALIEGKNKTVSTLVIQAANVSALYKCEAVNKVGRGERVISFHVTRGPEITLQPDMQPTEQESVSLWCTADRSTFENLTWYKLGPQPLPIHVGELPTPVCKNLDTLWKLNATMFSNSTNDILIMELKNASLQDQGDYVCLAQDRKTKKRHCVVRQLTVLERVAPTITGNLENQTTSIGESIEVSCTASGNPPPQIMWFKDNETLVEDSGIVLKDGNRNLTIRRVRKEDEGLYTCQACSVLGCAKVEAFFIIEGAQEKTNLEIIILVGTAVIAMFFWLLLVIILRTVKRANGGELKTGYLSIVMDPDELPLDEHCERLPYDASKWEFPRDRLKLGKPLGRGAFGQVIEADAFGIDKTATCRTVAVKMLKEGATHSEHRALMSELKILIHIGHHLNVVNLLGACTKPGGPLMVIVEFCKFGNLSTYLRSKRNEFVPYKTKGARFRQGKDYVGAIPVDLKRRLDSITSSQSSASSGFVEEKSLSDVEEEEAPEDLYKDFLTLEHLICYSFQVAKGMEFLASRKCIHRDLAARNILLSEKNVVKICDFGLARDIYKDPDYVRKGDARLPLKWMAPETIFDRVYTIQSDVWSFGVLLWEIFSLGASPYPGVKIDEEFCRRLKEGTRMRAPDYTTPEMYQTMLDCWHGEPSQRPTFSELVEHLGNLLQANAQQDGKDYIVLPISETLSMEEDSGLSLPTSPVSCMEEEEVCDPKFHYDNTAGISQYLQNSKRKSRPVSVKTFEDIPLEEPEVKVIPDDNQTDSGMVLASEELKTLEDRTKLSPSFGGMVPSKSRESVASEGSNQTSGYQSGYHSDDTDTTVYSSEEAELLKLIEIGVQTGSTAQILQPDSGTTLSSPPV
Description: VEGF Receptor-2 Kinase Assay
Recombinant VEGF receptor tyrosine kinase-2 was purified as a GST fusion protein from baculovirus-infected insect cells (Sf9). Poly-(Glu4Tyr), which was used as a kinase substrate, was purchased by the Sigma Company.
VEGF receptor tyrosine kinase (90 ng/measuring point) was incubated for 10 minutes at 22° C. in the presence of various concentrations of test substances (0 μm, as well as within the range of 0.001-30 μm) in 30 μl of assay buffer [40 mmol of Tris/HCl, […], 10 mmol of MgCl2, 1 mmol of MnCl2, 3 μmol of Na ortho-vanadate, 1.0 mmol of dithiothreitol, 8 μmol of adenosine trisphosphate (ATP), 27 μg/measuring point of poly-(Glu4Tyr), 0.2 μCi/measuring point of 33P-gamma ATP, 1% dimethyl sulfoxide]. The reaction was stopped by adding EDTA solution (250 mmol, pH 7.0, 10 μl/measuring point).
as §1

| IC50 [1] [µM] | IC50 (CDK1/CycB) [µM] | IC50 [2] [µM] | Compound |
| --- | --- | --- | --- |
| < 0.1 | 0.005 | – | C[C@@H](O)[C@@H](C)Oc1nc(Nc2ccc(S(=N)(=O)CCO)cc2)ncc1Br (mixture of isomers) [Example 1.21, (RS)-S-[4-({5-bromo-4-[(1R,2R)-2-hydroxy-1-methyl-propoxy]pyrimidin-2-yl}amino)phenyl]-S-(2-hydroxyethyl)sulfoximide] |
| 1 | 0.2 | 0.45 | CCOC(=O)N=S(=O)(CC)c1ccc(Nc2ncc(Br)c(N[C@H](COC)[C@@H](C)O)n2)cc1 (mixture of isomers) [Example 1.33, (RS)-S-{4-[(5-bromo-4-{[(1R,2R)-2-hydroxy-1-(methoxymethyl)propyl]amino}pyrimidin-2-yl)amino]phenyl}-N-(ethoxycarbonyl)-S-ethyl sulfoximide] |
| < 0.1 | – | – | C[C@@H](O)[C@@H](C)Nc1nc(Nc2ccc(S(C)(=N)=O)cc2)ncc1Br (mixture of isomers) [Example 1.43, (RS)-S-[4-({5-bromo-4-[(1R,2R)-(2-hydroxy-1-methylpropyl)amino]pyrimidin-2-yl}amino)phenyl]-S-methyl sulfoximide] |
| – | 0.027 | – | COC[C@@H](Nc1nc(Nc2ccc(S(C)(=N)=O)cc2)ncc1Br)[C@@H](C)O (mixture of isomers) [Example 1.47, (RS)-S-{4-[(5-bromo-4-{[(1R,2R)-2-hydroxy-1-(methoxymethyl)-propyl]amino}pyrimidin-2-yl)amino]phenyl}-S-methyl sulfoximide] |
| – | – | 0.47 | CCS(=N)(=O)c1ccc(Nc2ncc(Br)c(N[C@H](COC)[C@@H](C)O)n2)cc1 (mixture of isomers) [Example 1.49, (RS)-S-{4-[(5-bromo-4-{[(1R,2R)-2-hydroxy-1-(methoxymethyl)-propyl]amino}pyrimidin-2-yl)amino]phenyl}-S-ethyl sulfoximide] |
| – | – | 0.23 | CCS(=N)(=O)c1ccc(Nc2ncc(Br)c(N[C@H](COC)[C@@H](C)O)n2)cc1 (mixture of isomers) [Example 1.50, (RS)-S-{4-[(5-bromo-4-{[(1R,2R)-2-hydroxy-1-(methoxymethyl)-propyl]amino}pyrimidin-2-yl)amino]phenyl}-S-ethyl sulfoximide] |
| – | 0.011 | – | CCS(=N)(=O)c1ccc(Nc2ncc(Br)c(N[C@H](C)[C@@H](C)O)n2)cc1 (mixture of isomers) [Example 1.53, (RS)-S-[4-({5-bromo-4-[(1R,2R)-(2-hydroxy-1-methylpropyl)amino]pyrimidin-2-yl}amino)phenyl]-S-ethyl sulfoximide] |
| < 0.1 | – | 0.066 | Cc1cc(Nc2ncc(Br)c(N[C@H](C)C(C)(C)O)n2)ccc1S(C)(=N)=O (mixture of isomers) [Example 1.57, (RS)-S-[4-({5-bromo-4-[(R)-(2-hydroxy-1,2-dimethylpropyl)amino]pyrimidin-2-yl}amino)-2-methylphenyl]-S-methyl sulfoximide] |
| – | – | 0.045 | Cc1cc(Nc2ncc(Br)c(N[C@H](C)C(C)(C)O)n2)ccc1S(C)(=N)=O (mixture of isomers) [Example 1.58, (RS)-S-[4-({5-bromo-4-[(R)-(2-hydroxy-1,2-dimethylpropyl)amino]pyrimidin-2-yl}amino)-2-methylphenyl]-S-methyl sulfoximide] |
| – | – | 0.048 | Cc1cc(Nc2ncc(Br)c(N[C@H](C)C(C)(C)O)n2)ccc1S(C)(=N)=O (mixture of isomers) [Example 1.59, (RS)-S-[4-({5-bromo-4-[(R)-(2-hydroxy-1,2-dimethylpropyl)amino]pyrimidin-2-yl}amino)-2-methylphenyl]-S-methyl sulfoximide] |
| 1 | 0.072 | – | CC(O)CSc1nc(Nc2ccc(S(C)(=N)=O)cc2)ncc1Br (racemic) [Example 3.4, (RS)-S-[4-({5-bromo-4-[(RS)-(2-hydroxy-propyl)sulfanyl]pyrimidin-2-yl}amino)phenyl]-S-methyl sulfoximide] |
| < 0.1 | – | – | COc1cc(Nc2ncc(Br)c(N[C@H](C)[C@@H](C)O)n2)ccc1S(C)(=N)=O (single isomer, unassigned) [Example 1.25] |
